Assay results as given in USRE50319E1, “Compounds and methods for treating cancer” (Dana-Farber Cancer Institute, Inc., priority 2017, dated 2025).
Counter-ions that a name gives are not always drawn.

Legend:
[1] = tested on: BRCA1-deficient (HR-deficient) tumor cells; experiment: Rapid Cell Titer Glo assay; format: cell-based
[2] = biological target: POLQ (Homo sapiens, UniProt O75417); experiment: γ-32P-ATP based radiometric ATPase assay; format: biochemical; conditions: for inhibition of POLQ (ATPase) activity: FIG. 2B radiometric ATPase assay
Protocol: FIG. 2C is a bar plot showing quantification of the radiometric ATPase assay showing in FIG. 2B. SMARCAL1 was used as a control ATPase to identify inhibitors that show specificity to POLQ.
100 μM novobiocin was used in the assay. MTX=Mitoxantrone; SUR=Suramin sodium salt; NVB=novobiocin; AUR=Aurintricarboxylic acid; VAND=vandetanib (EGFR inhibitor, negative control).

[3] = tested on: Alt-EJ repair pathway; experiment: GFP reporter assay using EJ2 repair substrate (Alt-EJ); format: cell-based
Protocol: PARP inhibitor and ATM inhibitor were used as positive controls.
(§1) 10 μM concentration of each tested compound was used in the assay. Mitoxantrone and VAND kill cells.
(§2) 50 μM of each tested compound was used in the assay.

[4] = tested on: homologous recombination; experiment: Homologous recombination repair assay; format: cell-based
Protocol: as §1, §2

[5] = tested on: BRCA1-deficient tumor cells; experiment: Clonogenic survival assay, BRCA1-deficient tumor cells; format: cell-based; conditions: FIG. 4, versus isogenic BRCA1-proficient cell line
[6] = tested on: BRCA1−/− RPE1 cells; experiment: Clonogenic survival assay, RPE1 cells; format: cell-based; conditions: FIGS. 6 and 7
[7] = tested on: PARP inhibitor (olaparib) resistant RPE1 cells; experiment: PARP inhibitor (olaparib) resistant cell lines; format: cell-based; conditions: FIG. 10
[8] = tested on: RAD51 foci; experiment: RAD51 foci formation; format: cell-based; conditions: FIG. 11
[9] = tested on: yH2AX foci; experiment: yH2AX foci formation; format: cell-based; conditions: FIG. 12
[10] = tested on: RPE1-p53−/− BRCA1−/− cells; experiment: Apoptosis, Annexin V kit; format: cell-based; conditions: FIG. 13, analyzed 4 days after NVB
[11] = biological target: POLQ ATPase domain (Homo sapiens, UniProt O75417); experiment: Pull-down with novobiocin-conjugated sepharose beads, POLQ; format: binding; conditions: FIG. 15; novobiocin conjugated to sepharose beads
Excerpt: FIG. 14 contains an image showing that novobiocin was successfully conjugated to sepharose beads.
The color in the left tube is attributed to the novobiocin bound to the beads.

Sequence of POLQ (O75417 whole entry): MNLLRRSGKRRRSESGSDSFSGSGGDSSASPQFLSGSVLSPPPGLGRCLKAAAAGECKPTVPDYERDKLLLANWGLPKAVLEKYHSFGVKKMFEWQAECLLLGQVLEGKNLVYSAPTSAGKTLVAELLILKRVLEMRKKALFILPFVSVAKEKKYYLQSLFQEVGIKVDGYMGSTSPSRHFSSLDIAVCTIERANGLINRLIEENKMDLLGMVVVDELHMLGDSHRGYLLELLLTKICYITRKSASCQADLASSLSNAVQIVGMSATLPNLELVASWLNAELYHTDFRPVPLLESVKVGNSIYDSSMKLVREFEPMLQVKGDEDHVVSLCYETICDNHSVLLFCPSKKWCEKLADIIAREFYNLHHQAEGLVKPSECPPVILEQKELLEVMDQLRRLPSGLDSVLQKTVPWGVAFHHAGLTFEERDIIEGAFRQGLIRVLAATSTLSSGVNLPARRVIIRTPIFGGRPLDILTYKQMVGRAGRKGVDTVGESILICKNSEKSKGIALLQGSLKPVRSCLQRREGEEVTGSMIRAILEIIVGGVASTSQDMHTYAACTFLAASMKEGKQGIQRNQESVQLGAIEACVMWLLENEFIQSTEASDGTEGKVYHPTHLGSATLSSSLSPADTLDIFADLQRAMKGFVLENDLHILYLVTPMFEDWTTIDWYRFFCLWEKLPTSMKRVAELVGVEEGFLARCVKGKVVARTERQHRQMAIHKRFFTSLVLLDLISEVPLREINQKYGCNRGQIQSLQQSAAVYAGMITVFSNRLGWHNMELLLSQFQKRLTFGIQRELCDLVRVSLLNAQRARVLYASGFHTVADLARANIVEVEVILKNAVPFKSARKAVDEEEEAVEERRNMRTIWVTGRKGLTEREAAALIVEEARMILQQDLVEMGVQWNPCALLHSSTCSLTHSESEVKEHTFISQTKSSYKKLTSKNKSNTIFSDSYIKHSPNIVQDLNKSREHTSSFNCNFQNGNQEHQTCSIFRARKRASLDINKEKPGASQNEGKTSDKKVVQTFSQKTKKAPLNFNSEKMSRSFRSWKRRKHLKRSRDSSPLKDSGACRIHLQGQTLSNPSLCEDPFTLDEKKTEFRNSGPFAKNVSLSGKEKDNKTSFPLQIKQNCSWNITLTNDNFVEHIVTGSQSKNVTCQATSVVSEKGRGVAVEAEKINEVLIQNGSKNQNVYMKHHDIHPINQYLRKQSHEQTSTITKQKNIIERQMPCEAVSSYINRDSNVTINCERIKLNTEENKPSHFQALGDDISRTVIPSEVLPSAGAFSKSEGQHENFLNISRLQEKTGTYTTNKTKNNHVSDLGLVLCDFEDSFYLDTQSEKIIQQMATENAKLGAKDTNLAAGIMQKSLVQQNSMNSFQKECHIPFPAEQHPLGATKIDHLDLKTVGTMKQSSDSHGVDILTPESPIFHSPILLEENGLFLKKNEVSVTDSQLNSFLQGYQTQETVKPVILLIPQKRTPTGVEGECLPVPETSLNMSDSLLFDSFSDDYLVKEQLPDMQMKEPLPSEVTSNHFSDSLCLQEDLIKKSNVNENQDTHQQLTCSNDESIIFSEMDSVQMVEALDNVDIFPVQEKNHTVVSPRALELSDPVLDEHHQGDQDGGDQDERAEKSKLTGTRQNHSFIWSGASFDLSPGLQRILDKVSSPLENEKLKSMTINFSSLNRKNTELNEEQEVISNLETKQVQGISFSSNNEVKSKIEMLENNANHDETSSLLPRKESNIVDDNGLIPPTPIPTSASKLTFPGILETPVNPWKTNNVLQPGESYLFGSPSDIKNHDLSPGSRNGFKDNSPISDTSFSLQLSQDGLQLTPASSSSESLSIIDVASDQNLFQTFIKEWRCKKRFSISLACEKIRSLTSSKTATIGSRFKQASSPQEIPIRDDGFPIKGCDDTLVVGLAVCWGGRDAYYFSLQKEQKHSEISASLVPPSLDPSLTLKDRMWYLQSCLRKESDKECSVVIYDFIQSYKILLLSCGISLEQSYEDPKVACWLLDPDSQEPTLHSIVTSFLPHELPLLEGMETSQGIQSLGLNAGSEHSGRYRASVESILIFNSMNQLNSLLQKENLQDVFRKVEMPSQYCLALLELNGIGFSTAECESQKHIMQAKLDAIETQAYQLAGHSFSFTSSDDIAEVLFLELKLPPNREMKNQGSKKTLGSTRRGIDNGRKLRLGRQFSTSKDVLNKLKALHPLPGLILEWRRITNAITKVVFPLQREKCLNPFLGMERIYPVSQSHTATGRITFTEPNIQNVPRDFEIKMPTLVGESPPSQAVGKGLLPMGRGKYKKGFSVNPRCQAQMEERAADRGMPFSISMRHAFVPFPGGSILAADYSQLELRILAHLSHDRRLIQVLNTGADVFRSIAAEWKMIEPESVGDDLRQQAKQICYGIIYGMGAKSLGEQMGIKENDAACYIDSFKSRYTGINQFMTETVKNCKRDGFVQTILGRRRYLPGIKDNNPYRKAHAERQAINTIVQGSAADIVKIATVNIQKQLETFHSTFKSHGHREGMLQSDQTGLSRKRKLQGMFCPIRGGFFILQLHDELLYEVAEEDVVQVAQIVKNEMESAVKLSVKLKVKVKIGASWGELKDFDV
Sequence of POLQ ATPase domain (O75417 102-554 limits assumed): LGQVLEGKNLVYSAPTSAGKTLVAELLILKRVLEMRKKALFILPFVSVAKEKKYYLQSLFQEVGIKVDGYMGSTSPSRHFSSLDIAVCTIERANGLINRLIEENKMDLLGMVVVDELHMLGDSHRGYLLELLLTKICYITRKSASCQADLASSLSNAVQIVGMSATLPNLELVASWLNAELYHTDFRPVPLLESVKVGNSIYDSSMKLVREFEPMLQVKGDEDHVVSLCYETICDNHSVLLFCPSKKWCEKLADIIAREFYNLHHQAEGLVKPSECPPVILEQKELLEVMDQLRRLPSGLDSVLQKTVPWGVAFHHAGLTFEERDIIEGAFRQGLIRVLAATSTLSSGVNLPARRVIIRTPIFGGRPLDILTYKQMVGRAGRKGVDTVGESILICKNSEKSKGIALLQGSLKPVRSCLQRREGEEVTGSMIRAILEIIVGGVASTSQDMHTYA

SMILES: O=C(c1cc(Cc2n[nH]c(=O)c3ccccc23)ccc1F)N1CCN(C(=O)C2CC2)CC1 [olaparib]
- selective killing of BRCA1-deficient (HR-deficient) tumor cells ([1]; FIG. 3): selectively kills BRCA1-deficient (HR-deficient) tumor cells

SMILES: CO[C@@H]1[C@@H](OC(N)=O)[C@@H](O)[C@H](Oc2ccc3c(O)c(NC(=O)c4ccc(O)c(CC=C(C)C)c4)c(=O)oc3c2C)OC1(C)C [novobiocin]
- inhibition of POLQ (ATPase) activity ([2]; listed as N): inhibited POLQ activity
- inhibition of POLQ (ATPase) activity ([2]; listed as Novobiocin): inhibits the ATPase of POLQ
- specificity to POLQ ([2]; FIG. 2C, SMARCAL1 used as control ATPase): showed some specificity to POLQ
- inhibition of ATPase activity of POLQ ([2]; FIG. 5, 32P-based ATPase activity assay, 100 μM novobiocin): specifically inhibits ATPase activity of POLQ
- POLQ ATPase inhibition compared with related ATPases ([2]; versus ATPase activity of SMARCA or CHD1): inhibits the POLQ ATPase more strongly than it inhibits the ATPase activity of SMARCA or CHD1
- inhibition of Alt-EJ ([3]; FIG. 2D, EJ2 repair substrate GFP reporter): inhibited Alt-EJ
- inhibition of alternative end-joining ([3]; FIG. 8, 10 μM): inhibits alternative end-joining
- inhibition of alternative end-joining ([3]; FIG. 9, 50 μM): inhibits alternative end-joining
- inhibition of homologous recombination ([4]; FIG. 8, 10 μM): not homologous recombination
- inhibition of homologous recombination ([4]; FIG. 9, 50 μM): not homologous recombination
- selective killing of BRCA1-deficient (HR-deficient) tumor cells ([1]; FIG. 3): selectively kills BRCA1-deficient (HR-deficient) tumor cells
- selective killing of BRCA1-deficient (HR-deficient) tumor cells ([1]; FIG. 3, listed as Novobiocin): selectively kills HR-deficient cells as strongly as PARP inhibitor
- selective killing of BRCA1-deficient tumor cells [5]: selectively kills the BRCA1-deficient tumor cells
- selective killing of BRCA1-deficient tumor cells ([5]; listed as Novobiocin): selectively kills BRCA1-deficient tumor cells
- specific killing of BRCA1−/− RPE1 cells [6]: specifically kills BRCA1−/− RPE1 cells
- killing of PARP inhibitor resistant RPE1 cells [7]: kills RPE1 cells that are resistant to the PARP inhibitor
- RAD51 foci formation [8]: induces RAD51 and yH2AX foci formation
- yH2AX foci formation [9]: induces RAD51 and yH2AX foci formation
- induction of apoptosis [10]: induces apoptosis specifically in RPE1-p53−/− BRCA1−/− cells
- binding / pull-down of POLQ ATPase domain [11]: specifically binds to POLQ ATPase domain

SMILES: Cc1ccc(C(=O)Nc2ccc(S(=O)(=O)O)c3cc(S(=O)(=O)O)cc(S(=O)(=O)O)c23)cc1NC(=O)c1cccc(NC(=O)Nc2cccc(C(=O)Nc3cc(C(=O)Nc4ccc(S(=O)(=O)O)c5cc(S(=O)(=O)O)cc(S(=O)(=O)O)c45)ccc3C)c2)c1 [S, Suramin sodium salt]
- inhibition of POLQ (ATPase) activity [2]: inhibited POLQ activity

SMILES: COc1cc2c(Nc3ccc(Br)cc3F)ncnc2cc1OCC1CCN(C)CC1 [VAND, vandetanib]
- cell killing in the repair assay ([3]; FIG. 8, 10 μM): kill cells
- cell killing in the repair assay ([3]; FIG. 9, 50 μM): killed all cells

SMILES: O=C1c2c(O)ccc(O)c2C(=O)c2c(NCCNCCO)ccc(NCCNCCO)c21 [Mitoxantrone]
- inhibition of POLQ (ATPase) activity [2]: inhibited POLQ activity
- cell killing in the repair assay ([3]; FIG. 8, 10 μM): kill cells
- cell killing in the repair assay ([3]; FIG. 9, 50 μM): killed all cells
